Measurements as given in US20120088800A1, “2-(SUBSTITUTED) (ARYLMETHYL, ARYLOXY and ARYLTHIO))-N-(SUBSTITUTED PYRIDIN-2-YL)-2-(SUBSTITUTED ARYL) COMPOUNDS AS SUBTYPE-SELECTIVE MODULATORS OF SPHINGOSINE-1-PHOSPHATE-3 (S1P3) RECEPTORS” (ALLERGAN, INC., priority 2009, published 2012).
Structures can show the parent of a compound that is named as a salt.

What was measured:
perfused porcine eyes = conditions: IOVS 45, 2263, 2004; cited from earlier work
S1P3 = molecular target: T1, S1P3 (Homo sapiens, UniProt Q99500); assay: FLIPR calcium assay, cells expressing S1P3 and a G-protein; type: cell-based; conditions: for EC50: fluo-4 calcium signal compared to sphingosine 1-phosphate, antagonist mode; for FLIPR (% Antagonism) S1P3: value in parentheses below the EC50, antagonism of sphingosine 1-phosphate signal
T1 construct: expressed in transfected cells
T1 sequence (Q99500 whole entry, species assumed): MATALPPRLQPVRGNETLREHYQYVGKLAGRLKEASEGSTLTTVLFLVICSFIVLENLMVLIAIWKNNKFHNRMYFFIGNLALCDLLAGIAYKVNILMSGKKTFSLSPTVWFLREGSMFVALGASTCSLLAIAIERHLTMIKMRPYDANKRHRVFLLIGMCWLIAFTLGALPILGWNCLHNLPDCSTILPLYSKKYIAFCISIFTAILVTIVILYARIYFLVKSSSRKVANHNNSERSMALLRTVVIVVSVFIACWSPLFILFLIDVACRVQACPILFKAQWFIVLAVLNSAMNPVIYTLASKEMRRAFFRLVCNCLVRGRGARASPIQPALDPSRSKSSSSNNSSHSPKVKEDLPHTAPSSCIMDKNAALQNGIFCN
Excerpt: (§1) Novel compounds having this general structure were synthesized and tested for sphingosine 1-phosphate receptor (S1P) activity using the FLIPR assay. Cells expressing the receptor of interest (S1P1, S1P2 or S1P3) and a G-protein (Gqi5 or G16) are loaded with fluo-4, a calcium sensitive dye. After removal of excess dye by washing, the cells are placed in the FLIPR TETRA instrument. Baseline fluorescence readings are taken prior to addition the compound to be tested. Agonists will trigger the receptor to interact with the G-protein, leading to an increase in intracellular calcium. The increase in intracellular calcium causes an increase in the fluorescence of the cells, due to the presence of fluo-4. This fluorescence increase is recorded by the FLIPR TETRA. After the calcium transient signal has decreased towards baseline, the standard agonist sphingosine 1-phosphate is added. If the test compound is an antagonist, an initial calcium signal will not be generated and the antagonist will prevent the generation of a calcium signal from sphingosine 1-phosphate. The level of fluorescence is compared to that of sphingosine 1-phosphate, and the EC50 or IC50 of the compound determined by curve fitting.

S1P2 = molecular target: T2, S1P2 (Homo sapiens, UniProt O95136); assay: FLIPR calcium assay, cells expressing S1P2 and a G-protein; type: cell-based; conditions: fluo-4 calcium signal compared to sphingosine 1-phosphate
T2 construct: expressed in transfected cells
T2 sequence (O95136 whole entry, species assumed): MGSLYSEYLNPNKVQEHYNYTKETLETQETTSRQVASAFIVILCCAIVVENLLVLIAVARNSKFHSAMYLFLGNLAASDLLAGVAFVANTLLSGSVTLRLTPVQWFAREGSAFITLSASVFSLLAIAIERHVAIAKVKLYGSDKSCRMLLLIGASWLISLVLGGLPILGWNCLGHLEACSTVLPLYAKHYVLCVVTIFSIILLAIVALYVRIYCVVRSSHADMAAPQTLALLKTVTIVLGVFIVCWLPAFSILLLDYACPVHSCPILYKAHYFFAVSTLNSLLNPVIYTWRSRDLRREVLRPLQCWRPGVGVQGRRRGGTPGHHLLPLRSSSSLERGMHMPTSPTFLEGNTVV
Excerpt: as §1

S1P1 = molecular target: T3, S1P1 (Homo sapiens, UniProt P21453); assay: FLIPR calcium assay, cells expressing S1P1 and a G-protein; type: cell-based; conditions: fluo-4 calcium signal compared to sphingosine 1-phosphate
T3 construct: expressed in transfected cells
T3 sequence (P21453 whole entry, species assumed): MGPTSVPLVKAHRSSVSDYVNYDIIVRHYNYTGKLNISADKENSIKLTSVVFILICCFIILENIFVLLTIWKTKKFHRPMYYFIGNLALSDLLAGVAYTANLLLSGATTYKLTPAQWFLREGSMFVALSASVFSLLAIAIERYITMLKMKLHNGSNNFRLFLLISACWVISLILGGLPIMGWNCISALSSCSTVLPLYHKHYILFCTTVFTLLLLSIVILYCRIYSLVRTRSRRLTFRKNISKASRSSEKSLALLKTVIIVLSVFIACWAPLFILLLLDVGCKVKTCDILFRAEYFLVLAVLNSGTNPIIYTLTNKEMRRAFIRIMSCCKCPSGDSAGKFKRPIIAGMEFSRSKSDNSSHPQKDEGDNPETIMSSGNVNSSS
Excerpt: as §1

Row | SMILES | decrease of outflow facility (perfused porcine eyes) [%] | EC50 (S1P3) [nM] | FLIPR (% Antagonism) S1P3 (S1P3) | EC50 (S1P2) [nM] | EC50 (S1P1) [nM]
1 | CCCCCCCCCCCCC/C=C/[C@@H](O)[C@@H](N)COP(=O)(O)O [Example S1P, sphingosine 1-phosphate] | > 30 |  |  |  | 
2 | O=C(Nc1ccc(Br)cn1)C(Sc1ccccc1)c1ccccc1 (stereo not drawn) [Example 10, N-(5-bromopyridin-2-yl)-2-phenyl-2-(phenylthio)acetamide hydrochloride] |  | 256 | (100) % | > 8300 | > 8300
3 | O=C(Nc1ccc(Br)cn1)C(c1ccc(Cl)cc1)c1ccc(Cl)cc1 [Example 33, N-(5-bromopyridin-2-yl)-2,2-bis(4-chlorophenyl)acetamide] |  | 1720 | (94) % | > 8300 | > 8300
4 | Cc1ccc(SC(C(=O)Nc2ccc(Br)cn2)c2ccc(Cl)cc2)cc1 (stereo not drawn) [Example 16, N-(5-bromopyridin-2-yl)-2-(4-chlorophenyl)-2-(p-tolylthio)acetamide hydrochloride] |  | 256 | (100) % | > 8300 | > 8300
5 | O=C(Nc1ccc(Br)cn1)C(Sc1ccc(F)cc1)c1ccc(Cl)cc1 (stereo not drawn) [Example 14, N-(5-bromopyridin-2-yl)-2-(4-chlorophenyl)-2-(4-fluorophenylthio)acetamide hydrochloride] |  | 127 | (99) % | > 8300 | > 8300
6 | COc1ccc(SC(C(=O)Nc2ccc(Cl)cn2)c2ccc(Cl)cc2)cc1 (stereo not drawn) [Example 12, 2-(4-chlorophenyl)-N-(5-chloropyridin-2-yl)-2-(4-methoxyphenylthio)acetamide hydrochloride] |  | 376 | (99) % | > 8300 | > 8300
